Source: ChEMBL document CHEMBL4052716, “Discovery and development of a novel class of phenoxyacetyl amides as highly potent TRPM8 agonists for use as cooling agents” (Bioorg Med Chem Lett, 2017)
≈ marks a conversion by molar mass, not a printed value. Calls of active or inactive are those of the source. No cut-off for these calls is given here.

Legend:
[1] = target: T1, Transient receptor potential cation channel subfamily M member 8 (Homo sapiens, UniProt Q7Z2W7); experiment: Agonist activity at human TRPM8 expressed in HEK293 cells assessed as increase in intracellular calcium level after 15 mins by Fluo-3-AM dye-based fluorescence assay; type: cell-based; settings: read-out: EC50
Target sequence in this assay (Q7Z2W7 whole entry): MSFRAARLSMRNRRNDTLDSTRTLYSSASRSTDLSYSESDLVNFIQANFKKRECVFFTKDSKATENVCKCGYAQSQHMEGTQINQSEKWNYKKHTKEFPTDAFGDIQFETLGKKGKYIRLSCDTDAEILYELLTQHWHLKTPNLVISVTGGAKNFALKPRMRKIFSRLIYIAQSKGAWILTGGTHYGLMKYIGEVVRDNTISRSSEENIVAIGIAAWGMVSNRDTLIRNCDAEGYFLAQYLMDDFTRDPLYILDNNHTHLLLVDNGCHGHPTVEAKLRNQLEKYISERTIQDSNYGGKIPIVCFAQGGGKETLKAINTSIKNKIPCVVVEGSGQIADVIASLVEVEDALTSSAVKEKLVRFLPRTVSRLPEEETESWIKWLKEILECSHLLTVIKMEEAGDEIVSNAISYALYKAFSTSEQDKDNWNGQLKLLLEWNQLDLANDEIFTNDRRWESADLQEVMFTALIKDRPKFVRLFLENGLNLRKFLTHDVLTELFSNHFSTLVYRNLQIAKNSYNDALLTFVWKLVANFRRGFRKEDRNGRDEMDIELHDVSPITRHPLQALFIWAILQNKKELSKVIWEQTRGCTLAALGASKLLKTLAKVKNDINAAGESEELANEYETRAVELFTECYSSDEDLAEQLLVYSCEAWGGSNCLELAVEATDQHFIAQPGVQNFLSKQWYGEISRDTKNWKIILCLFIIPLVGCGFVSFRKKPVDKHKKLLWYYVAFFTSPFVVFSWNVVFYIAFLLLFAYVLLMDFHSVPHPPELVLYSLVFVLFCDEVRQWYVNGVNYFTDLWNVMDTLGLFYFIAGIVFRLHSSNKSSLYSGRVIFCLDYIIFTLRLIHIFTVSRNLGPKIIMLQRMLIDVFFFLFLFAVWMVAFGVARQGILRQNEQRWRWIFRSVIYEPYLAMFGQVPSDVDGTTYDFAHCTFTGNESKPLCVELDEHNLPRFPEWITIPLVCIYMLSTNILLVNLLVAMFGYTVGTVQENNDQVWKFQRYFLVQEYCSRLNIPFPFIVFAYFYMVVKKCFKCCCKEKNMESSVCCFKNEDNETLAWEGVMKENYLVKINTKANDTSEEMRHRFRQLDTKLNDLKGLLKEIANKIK

[2] = target: T1, Transient receptor potential cation channel subfamily M member 8; experiment: Potency index, ratio of WS-3 EC50 to compound EC50 for human TRPM8 receptor
Target sequence in this assay (Q7Z2W7 whole entry, looked up): as the sequence (Q7Z2W7 whole entry) above

[3] = Thermodynamic solubility of the compound in pH 7.1 phosphoric buffer; type: physicochemical; settings: read-out: Therm_solubility
[4] = Permeability of the compound assessed as drug transport by PAMPA; type: physicochemical
Homo sapiens [5] = experiment: In vivo agonist activity at human TRPM8 in trained human subjects assessed as concentration required to deliver cooling sensation equivalent to 45 uM WS-3 by measuring cooling intensity; type: functional
[6] = Stability of the compound in pH 2.8 citric acid assessed as compound remaining after heating at 100 degC for 24 hrs; type: physicochemical; settings: read-out: Stability
[7] = Stability of the compound in pH 4.0 citric acid assessed as compound remaining after heating at 100 degC for 24 hrs; type: physicochemical; settings: read-out: Stability
[8] = Stability of the compound in pH 7.1 phosphoric acid assessed as compound remaining after heating at 100 degC for 24 hrs; type: physicochemical; settings: read-out: Stability
Homo sapiens [9] = experiment: In vivo agonist activity at human TRPM8 in trained human subjects assessed as time duration of perceived cooling effect at 45 uM dosed as aqueous solution; type: functional
Homo sapiens [10] = organism: Homo sapiens; experiment: Induction of off-taste response in rained human subjects during cooling sensation study
Homo sapiens [11] = experiment: In vivo agonist activity at human TRPM8 in trained human subjects assessed as time duration of perceived cooling effect at 3 uM dosed as aqueous solution; type: functional
Homo sapiens [12] = organism: Homo sapiens; experiment: Induction of off-taste response in rained human subjects assessed as induction of bitterness during cooling sensation study

Structure (SMILES)	EC50 [1] [nM]	Ratio EC50 [2]	solubility thermodynamic [3] [µM]	Drug transport [4] [%]	Activity (Homo sapiens [5])	also measured
O=C(COc1ccc2c(c1)CCC2)N(Cc1cccs1)c1ccn[nH]1	0.001	> 1e+06	26 (≈ 9.19 µg/mL)	5	3 µM	
CCN(Cc1cccs1)C(=O)COc1ccc2c(c1)CCC2	0.8	7680	85 (≈ 26.8 µg/mL)	3	3 µM	
Cc1ccc(/C=C/C(=O)N(Cc2cccs2)c2ccn[nH]2)cc1	0.004	> 1e+06	3.7 (≈ 1.2 µg/mL)	5	3 µM	
CCNC(=O)[C@@H]1C[C@H](C)CC[C@H]1C(C)C						Time (Homo sapiens [9]): 25 min
CCN(Cc1cccs1)C(=O)COc1ccc2c(c1)COC2	61	58	571 (≈ 181 µg/mL)	33	5 µM	
CCN(Cc1cccs1)C(=O)COc1ccc(C)cc1	8	620	545 (≈ 158 µg/mL)	12	5 µM	
CCN(Cc1ccoc1)C(=O)COc1ccc(C)cc1	136	32			5 µM	
CCN(Cc1cccs1)C(=O)c1cc2cc(OC)ccc2o1	80	164	49 (≈ 15.5 µg/mL)	1	5 µM	
C=CCN(Cc1cccs1)C(=O)COc1ccc(C)cc1	20	365			5 µM	
Cc1ccc(OCC(=O)N(Cc2cccs2)c2c[nH]nc2C)cc1	0.4	10700			>5 µM	
CCCN(Cc1cccs1)C(=O)COc1ccc(C)cc1	40	149			>5 µM	
CCc1ccc(OCC(=O)N(CC)Cc2cccs2)cc1	67	66			5 µM	
CCN(Cc1cccs1)C(=O)COc1cc(C)ccc1O	24	180			5 µM	
CCN(Cc1cccs1)C(=O)c1cc2cc(C)ccc2o1	120	42	27 (≈ 8.08 µg/mL)	2	10 µM	

The next lines start with results.

EC50 [1] [nM]	Ratio EC50 [2]	solubility thermodynamic [3] [µM]	Drug transport [4] [%]	Structure (SMILES)	Activity (Homo sapiens [5])	also measured
2	3440			Cc1ccc(OCC(=O)N(Cc2cccs2)c2ccon2)cc1		remaining at 24 h [6]: 90.8%; remaining at 24 h [7]: 78.1%; remaining at 24 h [8]: 0.5%
0.2	35800	189 (≈ 61.9 µg/mL)	10	Cc1ccc(OCC(=O)N(Cc2cccs2)c2ccn[nH]2)cc1	3 µM	Activity (Homo sapiens [10]): Non-Toxic; Time (Homo sapiens [11]): 60 min
0.3	120000			Cc1ccc(OCC(=O)N(Cc2cccs2)c2ncco2)cc1		remaining at 24 h [6]: 14.9%; remaining at 24 h [7]: 73.7%; remaining at 24 h [8]: 0.1%
1.4	3820			Cc1ccc(OCC(=O)N(Cc2cccs2)c2cn[nH]c2)cc1	>5 µM	
422	14			Cc1ccc(OCC(=O)N(Cc2cccs2)c2ccnn2C)cc1	inactive	Activity (Homo sapiens [12]): Toxic
198	24			Cc1ccc(OCC(=O)N(Cc2cccs2)c2cccnc2)cc1	15 µM	
23	197			Cc1ccc(OCC(=O)N(Cc2cccs2)c2ccccc2)cc1	15 µM	
